Measurements reported in ChEMBL document CHEMBL1140940, “Pyrido[2,3-d]pyrimidin-5-ones: a novel class of antiinflammatory macrophage colony-stimulating factor-1 receptor inhibitors” (J Med Chem, 2009).
Calls of active or inactive are those of the source. The rule behind the calls is not given here.

Assays:
[1] = Cmax in monkey at 10 mg/kg, po; assay type: ADME, organism-based, Macaca mulatta; set-up: dose 10 mg/kg, route oral; settings: rhesus monkey, in vivo
[2] = target: T1, Receptor-type tyrosine-protein kinase FLT3 (Homo sapiens, UniProt P36888); test: Inhibition of FLT3 by fluorescence polarization competition immunoassay
T1 sequence (P36888 whole entry): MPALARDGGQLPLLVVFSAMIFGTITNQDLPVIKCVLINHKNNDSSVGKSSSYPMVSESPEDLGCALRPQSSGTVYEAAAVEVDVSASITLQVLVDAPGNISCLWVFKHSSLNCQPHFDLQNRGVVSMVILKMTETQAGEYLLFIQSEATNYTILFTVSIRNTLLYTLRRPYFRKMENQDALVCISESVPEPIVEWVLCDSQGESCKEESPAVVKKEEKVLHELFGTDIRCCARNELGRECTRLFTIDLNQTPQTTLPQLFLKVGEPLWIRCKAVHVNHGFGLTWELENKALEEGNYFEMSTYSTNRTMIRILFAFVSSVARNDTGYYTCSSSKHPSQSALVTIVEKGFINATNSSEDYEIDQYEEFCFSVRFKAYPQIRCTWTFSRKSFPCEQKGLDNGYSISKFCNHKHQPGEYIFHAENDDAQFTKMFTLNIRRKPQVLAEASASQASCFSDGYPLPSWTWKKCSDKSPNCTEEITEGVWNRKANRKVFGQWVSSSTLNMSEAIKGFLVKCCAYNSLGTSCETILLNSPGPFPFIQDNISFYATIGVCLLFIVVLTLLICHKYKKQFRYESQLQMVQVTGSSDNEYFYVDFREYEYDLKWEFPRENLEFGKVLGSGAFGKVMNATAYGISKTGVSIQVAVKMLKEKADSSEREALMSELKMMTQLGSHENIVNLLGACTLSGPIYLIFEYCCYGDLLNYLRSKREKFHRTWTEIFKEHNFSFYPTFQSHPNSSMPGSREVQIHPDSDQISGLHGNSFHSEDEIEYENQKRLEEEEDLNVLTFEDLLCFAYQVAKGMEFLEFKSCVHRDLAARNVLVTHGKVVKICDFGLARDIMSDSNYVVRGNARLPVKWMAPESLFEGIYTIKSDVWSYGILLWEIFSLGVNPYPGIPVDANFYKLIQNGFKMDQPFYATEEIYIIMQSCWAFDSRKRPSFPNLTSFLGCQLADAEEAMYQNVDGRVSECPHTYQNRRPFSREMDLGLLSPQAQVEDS

[3] = test system: Rattus norvegicus; test: Inhibition of ankle swelling in Freund's complete adjuvant-induced Lewis rat arthritis model at […], po twice daily administered on day 8 post adjuvant challenge measured on day 21 post adjuvant challenge relative to control; assay type: functional; settings: dose 0.33 mg/kg
[4] = Volume of distribution at steady state in monkey at 2 mg/kg, iv; assay type: ADME, organism-based, Macaca mulatta; set-up: dose 2 mg/kg, route intravenous; settings: rhesus monkey, in vivo, read-out: Vdss
[5] = Half life in Sprague-Dawley rat at 10 mg/kg, po; assay type: ADME, organism-based; set-up: dose 10 mg/kg, route oral; settings: in vivo
[6] = Half life in mouse at 10 mg/kg, po; assay type: ADME, organism-based; set-up: dose 10 mg/kg, route oral; settings: in vivo
[7] = test system: Rattus norvegicus; test: Antiinflammatory effect in Freund's complete adjuvant-induced Lewis rat arthritis model assessed as prevention of bone lesion development at tibial tarsal joint at 1 mg/kg, po twice daily administered on day 8 post adjuvant challenge measured on day 21 post adjuvant challenge by microradiography; assay type: functional, organism-based; set-up: dose 1 mg/kg
[8] = Metabolic stability in human liver microsomes after 10 mins; assay type: ADME, Microsome; settings: read-out: Stability
[9] = Metabolic stability in dog liver microsomes after 10 mins; assay type: ADME, Canis lupus familiaris, Microsome; settings: read-out: Stability
[10] = test system: Mus musculus; test: Reduction of CSF1-induced increase in c-fos mRNA expression in B6C3F1 mouse at 3 mg/kg, po administered 6 hrs before CSF1 challenge measured 15 mins post CSF1 challenge relative to control; assay type: functional; set-up: scale not given: the % may be the effect or the level left
[11] = Half life in Sprague-Dawley rat at 2 mg/kg, iv; assay type: ADME, organism-based; set-up: dose 2 mg/kg, route intravenous; settings: in vivo
[12] = test system: Rattus norvegicus; test: Antiinflammatory effect in Freund's complete adjuvant-induced Lewis rat arthritis model assessed as prevention of osteoclastogenesis at 1 mg/kg, po twice daily administered on day 8 post adjuvant challenge measured on day 21 post adjuvant challenge relative to control; assay type: functional, organism-based; set-up: dose 1 mg/kg
[13] = Oral bioavailability in mouse at 10 mg/kg; assay type: ADME, organism-based; settings: in vivo
[14] = test system: Rattus norvegicus; test: Reversal of ankle swelling in streptococcal cell wall-induced Lewis rat chronic arthritis model at 10 mg/kg, po twice daily administered on day 19 post streptococcal cell wall challenge; assay type: functional, organism-based; set-up: dose 10 mg/kg
[15] = Volume of distribution at steady state in Sprague-Dawley rat at 2 mg/kg, iv; assay type: ADME, organism-based; set-up: dose 2 mg/kg, route intravenous; settings: in vivo, read-out: Vdss

Cmax [1]: 60 nM
IC50 [2]: 6 nM
Vd [4]: 22.6 L/kg
half-life [5]: 6.9 h
half-life [6]: 4 h
remaining at 10 min [8]: 87%
remaining at 10 min [9]: 51%
half-life [11]: 4.6 h
bioavailability [13]: 51%
Vd [15]: 4.3 L/kg
Compound: CONC(=O)c1cn(-c2ccc3c(c2)CCC3)c2nc(Nc3ccc(C4CCN(C)CC4)cc3)ncc2c1=O
inhibition in vivo at […] [3]: 7%
Activity [7]: Active
Activity [10]: 90%
Activity [12]: Active
Activity [14]: Active
